Measured values from patent publication US8022225B2, “Triazole derivative” (Taisho Pharmaceutical Co., Ltd, priority 2004, dated 2011).

What was measured:
human Edg-1(S1P1) [1] = molecular target: T1, human Edg-1(S1P1) (Homo sapiens, UniProt P21453); assay: Cell system binding test: inhibition of [3H]-S1P binding to Edg-1(S1P1) gene transferred HEK-293 cells; details: [3H]-S1P 10 nM
T1 construct: expressed in transfected cells; host or cells: HEK-293

human Edg-1(S1P1) [2] = molecular target: T1, human Edg-1(S1P1); assay: Membrane system binding test: inhibition of [33P]-S1P binding to the membrane fraction of Edg-1(S1P1) gene transferred HEK-293 cells; details: [33P]-S1P 0.1 nM
In short: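 Membranes from HEK-293 cells transfected with Edg-1(S1P1) incubated 1 h at 30 °C with 0.1 nM [^33P]-S1P and compound at 10^−5 M (0.1% DMSO), pH 7.4 buffer with fatty acid-free BSA. Filter-bound radioactivity counted; inhibition rate calculated against no-compound binding, with untransfected-cell background subtracted.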

[3] = 10 μM compound, read-out: Cell system binding test % inhibition (10 μM)
[4] = 10 μM compound, membrane fraction of Edg-1(S1P1) gene transferred HEK-293 cells, read-out: Membrane system binding test % inhibition (10 μM)
[5] = 10 μM compound, membrane fraction of Edg-1(S1P1) gene transferred HEK-293 cells
[6] = test compound 10^-5 M, 1 hour, read-out: Edg-1(S1P1) binding inhibition rate (cell system binding test)
[7] = test compound 10^-5 M, 1 hour at 30° C., HEK-293 membrane fraction, read-out: Edg-1(S1P1) binding inhibition rate (membrane system binding test)

T1 sequence (P21453 whole entry): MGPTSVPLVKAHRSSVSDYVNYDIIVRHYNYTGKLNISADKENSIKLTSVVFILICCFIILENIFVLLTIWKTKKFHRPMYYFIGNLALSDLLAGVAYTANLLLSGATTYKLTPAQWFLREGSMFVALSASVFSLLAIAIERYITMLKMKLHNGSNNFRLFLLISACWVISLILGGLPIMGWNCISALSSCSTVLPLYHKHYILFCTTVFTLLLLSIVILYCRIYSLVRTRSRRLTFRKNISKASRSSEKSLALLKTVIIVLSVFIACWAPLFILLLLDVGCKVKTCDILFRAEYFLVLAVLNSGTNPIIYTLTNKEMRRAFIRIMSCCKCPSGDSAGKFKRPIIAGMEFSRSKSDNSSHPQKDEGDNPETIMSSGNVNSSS

SMILES	inhibition at 10 µM (human Edg-1(S1P1) [1]; [3])	inhibition at 10 µM (human Edg-1(S1P1) [2]; [4])	further results
CCOc1nnc([C@@H](C)NS(=O)(=O)c2ccc(F)c(C(F)(F)F)c2)n1CC [Compound 399]	88.5%	90.9%	–
CCOc1nnc([C@@H](C)NS(=O)(=O)c2ccc(Br)s2)n1CC [Compound 400]	92.8%	84.8%	–
CCOc1nnc([C@@H](C)NS(=O)(=O)c2ccc(Cl)c(Cl)c2)n1CC [Compound 401]	92.8%	87.2%	–
CCOc1nnc([C@@H](C)NS(=O)(=O)c2ccc3ccccc3c2)n1CC [Compound 402]	90.4%	95.8%	–
CCOc1nnc([C@@H](C)NS(=O)(=O)c2ccc(F)c(F)c2)n1CC [Compound 403]	86.1%	85.9%	–
CCOc1nnc([C@@H](C)NS(=O)(=O)c2ccc(C)c(Cl)c2)n1CC [Compound 404]	91.2%	90%	–
CCOc1nnc([C@@H](C)NS(=O)(=O)c2ccc(Br)c(F)c2)n1CC [Compound 405]	90.4%	88.2%	–
CCOc1nnc([C@@H](C)NS(=O)(=O)c2cc3ccccc3s2)n1CC [Compound 406]	90.1%	92.5%	–
CCOc1nnc([C@@H](C)NS(=O)(=O)c2ccc(F)c(Cl)c2)n1CC [Compound 407]	94.7%	81.9%	–
CCOc1nnc([C@@H](C)NS(=O)(=O)c2cccc(Br)c2)n1CC [Compound 408]	88.5%	84.9%	–
CCOc1nnc([C@@H](C)NS(=O)(=O)c2ccc(Br)cc2)n1CC [Compound 409]	88.1%	92.2%	–
CCOc1nnc([C@@H](C)NS(=O)(=O)c2ccc(C)c(C)c2)n1CC [Compound 410]	96.4%	86.1%	–
CCOc1nnc([C@@H](C)NS(=O)(=O)c2ccc(C)c(F)c2)n1CC [Compound 411]	95.9%	81.8%	–
CCOc1nnc([C@@H](C)NS(=O)(=O)c2ccc(Br)c(Br)c2)n1CC [Compound 412]	99.9%	89.1%	–
CCOc1nnc([C@@H](C)NS(=O)(=O)c2ccc([N+](=O)[O-])cc2)n1CC [Compound 413]	100%	93.8%	–
CCOc1nnc([C@@H](C)NS(=O)(=O)c2cccc(C(F)(F)F)c2)n1CC [Compound 414]	101%	81%	–
CCOc1nnc([C@@H](C)NS(=O)(=O)c2cccc(OC(F)(F)F)c2)n1CC [Compound 415]	99.6%	75.1%	–
CCOc1nnc([C@@H](C)NS(=O)(=O)c2cccc(OC(F)F)c2)n1CC [Compound 416]	100%	77.7%	–
CCOc1nnc([C@@H](C)NS(=O)(=O)c2cccc(OC)c2)n1CC [Compound 417]	97.9%	64.8%	–

SMILES	inhibition at 10 µM (human Edg-1(S1P1) [1]; [3])	inhibition at 10 µM (human Edg-1(S1P1) [2]; [4])	further results
CCOc1nnc([C@@H](C)NS(=O)(=O)c2ccc3c(c2)OCO3)n1CC [Compound 418]	99.5%	70.4%	–
CCOc1nnc([C@@H](C)NS(=O)(=O)c2ccc(OC)cc2)n1CC [Compound 420]	93.3%	50.1%	–
CCn1c(OC)nnc1[C@@H](Cc1ccc(Cl)cc1)NS(=O)(=O)c1ccc(Cl)cc1 [Compound 426]	95.7%	101%	–
CCn1c(OC)nnc1[C@@H](C)NS(=O)(=O)c1cc2ccccc2o1 [Compound 427]	97.5%	67%	–
CCOc1nnc([C@@H](C)NS(=O)(=O)c2ccc(Br)c(C)c2)n1CC [Compound 428]	101%	99.2%	–
CCOc1nnc([C@@H](C)NS(=O)(=O)c2ccc(C)cc2)n1CC [Compound 429]	95.1%	74.2%	–
CCOc1nnc([C@@H](C)NS(=O)(=O)c2cccc(Cl)c2C)n1CC [Compound 430]	97.9%	89.2%	–
CCOc1nnc([C@@H](C)NS(=O)(=O)c2ccc3nsnc3c2)n1CC [Compound 431]	98%	94.6%	–
CCOc1nnc([C@@H](C)NS(=O)(=O)c2ccc(C(F)(F)F)cc2)n1CC [Compound 432]	92.2%	82.9%	–
CCOc1nnc([C@@H](C)NS(=O)(=O)c2cc(F)cc(F)c2)n1CC [Compound 433]	93.8%	70.2%	–
CCOc1nnc([C@@H](C)NS(=O)(=O)c2cc(Cl)c(Cl)s2)n1CC [Compound 434]	95.6%	90.5%	–
CCOc1nnc([C@@H](C)NS(=O)(=O)c2ccc(I)cc2)n1CC [Compound 435]	93.7%	86.4%	–
CCOc1nnc([C@@H](C)NS(=O)(=O)c2ccc(F)cc2)n1CC [Compound 436]	94.5%	49%	–
CCOc1nnc([C@@H](C)NS(=O)(=O)c2ccc(Br)c(C(F)(F)F)c2)n1CC [Compound 437]	101%	93.9%	–
CCn1c(OC)nnc1[C@@H](Cc1ccccc1Cl)NS(=O)(=O)c1ccc(Cl)cc1 [Compound 439]	95%	100%	–
CCn1c(OC)nnc1[C@@H](Cc1cccc(Cl)c1)NS(=O)(=O)c1ccc(Cl)cc1 [Compound 440]	95.1%	102%	–
CCn1c(OC)nnc1[C@@H](C)NS(=O)(=O)c1ccc2[nH]c(=O)oc2c1 [Compound 443]	31.3%	43%	–
CCn1c(OC)nnc1[C@@H](C)NS(=O)(=O)c1ccc(NC(C)=O)cc1 [Compound 444]	18.2%	60.9%	–
CCOc1nnc([C@@H](C)NS(=O)(=O)c2cccc(Cl)c2)n1CC [Compound 445]	93%	81.6%	–

SMILES	inhibition at 10 µM (human Edg-1(S1P1) [1]; [3])	inhibition at 10 µM (human Edg-1(S1P1) [2]; [4])	further results
CCOc1nnc([C@@H](C)NS(=O)(=O)c2ccc(CC)cc2)n1CC [Compound 446]	91.4%	72.5%	–
CCOc1nnc([C@@H](C)NS(=O)(=O)c2cccc(OC)c2)n1CC [Compound 447]	–	–	Cell system binding test % inhibition (10 μM) (human Edg-1(S1P1) [1]; 10 μM compound): 89.2%; Membrane system binding test % inhibition (10 μM) (human Edg-1(S1P1) [2]; [5]): 72.2%
CCn1c(OC)nnc1[C@@H](C)NS(=O)(=O)c1ccc(Br)c(Br)c1 [Compound 448]	–	–	Cell system binding test % inhibition (10 μM) (human Edg-1(S1P1) [1]; 10 μM compound): 89.7%; Membrane system binding test % inhibition (10 μM) (human Edg-1(S1P1) [2]; [5]): 99.6%
CCn1c(OC)nnc1[C@@H](C)NS(=O)(=O)c1cc(F)c(Br)cc1F [Compound 449]	–	–	Cell system binding test % inhibition (10 μM) (human Edg-1(S1P1) [1]; 10 μM compound): 91.6%; Membrane system binding test % inhibition (10 μM) (human Edg-1(S1P1) [2]; [5]): 65.9%
CCn1c(OC(C)C)nnc1[C@@H](C)NS(=O)(=O)c1ccc(Br)s1 [Compound 452]	–	–	inhibition at 10 µM (human Edg-1(S1P1) [1]; [6]): 91.8%; inhibition at 10 µM (human Edg-1(S1P1) [2]; [7]): 89.7%
CCn1c(OC(C)C)nnc1[C@@H](C)NS(=O)(=O)c1ccc(Cl)c(Cl)c1 [Compound 453]	–	–	inhibition at 10 µM (human Edg-1(S1P1) [1]; [6]): 89.4%; inhibition at 10 µM (human Edg-1(S1P1) [2]; [7]): 97.1%
CCn1c(OC(C)C)nnc1[C@@H](C)NS(=O)(=O)c1ccc(C)c(Cl)c1 [Compound 454]	–	–	inhibition at 10 µM (human Edg-1(S1P1) [1]; [6]): 91.7%; inhibition at 10 µM (human Edg-1(S1P1) [2]; [7]): 92.6%
CCn1c(OC(C)C)nnc1[C@@H](C)NS(=O)(=O)c1ccc(Br)c(F)c1 [Compound 455]	–	–	inhibition at 10 µM (human Edg-1(S1P1) [1]; [6]): 93.2%; inhibition at 10 µM (human Edg-1(S1P1) [2]; [7]): 91.7%
CCn1c(OC(C)C)nnc1[C@@H](C)NS(=O)(=O)c1ccc(F)c(Cl)c1 [Compound 456]	–	–	inhibition at 10 µM (human Edg-1(S1P1) [1]; [6]): 87.4%; inhibition at 10 µM (human Edg-1(S1P1) [2]; [7]): 89%
CCn1c(OC(C)C)nnc1[C@@H](C)NS(=O)(=O)c1ccc(Br)c(C)c1 [Compound 457]	–	–	inhibition at 10 µM (human Edg-1(S1P1) [1]; [6]): 85.4%; inhibition at 10 µM (human Edg-1(S1P1) [2]; [7]): 101%
CCn1c(OC(C)C)nnc1[C@@H](C)NS(=O)(=O)c1cc(F)c(F)c(F)c1 [Compound 458]	–	–	inhibition at 10 µM (human Edg-1(S1P1) [1]; [6]): 86.5%; inhibition at 10 µM (human Edg-1(S1P1) [2]; [7]): 91.9%
CCn1c(OC)nnc1[C@@H](COC)NS(=O)(=O)c1ccc(Cl)cc1 [Compound 459]	–	–	inhibition at 10 µM (human Edg-1(S1P1) [1]; [6]): 89.9%; inhibition at 10 µM (human Edg-1(S1P1) [2]; [7]): 68.5%
CCn1c(OC(C)C)nnc1[C@@H](C)NS(=O)(=O)c1cccc(Br)c1 [Compound 460]	–	–	inhibition at 10 µM (human Edg-1(S1P1) [1]; [6]): 94.5%; inhibition at 10 µM (human Edg-1(S1P1) [2]; [7]): 76.3%
CCn1c(OC(C)C)nnc1[C@@H](C)NS(=O)(=O)c1ccc(Br)cc1 [Compound 461]	–	–	inhibition at 10 µM (human Edg-1(S1P1) [1]; [6]): 87.9%; inhibition at 10 µM (human Edg-1(S1P1) [2]; [7]): 89.5%
CCn1c(OC(C)C)nnc1[C@@H](C)NS(=O)(=O)c1ccc(C)c(C)c1 [Compound 462]	–	–	inhibition at 10 µM (human Edg-1(S1P1) [1]; [6]): 83.5%; inhibition at 10 µM (human Edg-1(S1P1) [2]; [7]): 92.1%
CCn1c(OC(C)C)nnc1[C@@H](C)NS(=O)(=O)c1ccc(C)c(F)c1 [Compound 463]	–	–	inhibition at 10 µM (human Edg-1(S1P1) [1]; [6]): 88.7%; inhibition at 10 µM (human Edg-1(S1P1) [2]; [7]): 97.2%
CCn1c(OC(C)C)nnc1[C@@H](C)NS(=O)(=O)c1ccc2ccccc2c1 [Compound 464]	–	–	inhibition at 10 µM (human Edg-1(S1P1) [1]; [6]): 99.6%; inhibition at 10 µM (human Edg-1(S1P1) [2]; [7]): 98.3%
CCn1c(OC(C)C)nnc1[C@@H](C)NS(=O)(=O)c1ccc(F)c(F)c1 [Compound 465]	–	–	inhibition at 10 µM (human Edg-1(S1P1) [1]; [6]): 97.9%; inhibition at 10 µM (human Edg-1(S1P1) [2]; [7]): 88%

More lines, main results first:

inhibition at 10 µM (human Edg-1(S1P1) [1]; [3])	inhibition at 10 µM (human Edg-1(S1P1) [2]; [4])	SMILES	further results
92.3%	93.8%	CCOc1nnc([C@@H](C)NS(=O)(=O)c2cc(F)c(F)c(F)c2)n1CC [Compound 450]	–
94.2%	62.7%	CCOc1nnc([C@@H](C)NS(=O)(=O)c2cc(F)c(Br)cc2F)n1CC [Compound 451]	–
